Results published in PubChem BioAssay AID330 (DTP/NCI, 2004).
Several values for one entry are separate records, joined by “and”; a condition that tells them apart may be missing. Equal values may be shown once. Toxic doses and inconclusive results are not listed.

System: P388 leukemia ip, CD2F1 mice, survival T/C
Test: NCI In Vivo Anticancer Drug Screen. Data for tumor model P388 Leukemia (intraperitoneal) in CD2F1 (CDF1) mice
Conditions: endpoint: median survival time, higher = longer survival
Summary of the method: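 Mice carrying the transplanted tumor received test compound or vehicle. Survival was recorded in each group, and the value is the treated-group measurement divided by that of the vehicle-treated control group.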

[1] = dose: 50.0 mg/kg/injection, schedule: Q01DX009 (ip), vehicle: Klucel (hydroxypropylcellulose) (HPC)
[2] = dose: 100.0 mg/kg/injection, schedule: Q01DX009 (ip), vehicle: Klucel (hydroxypropylcellulose) (HPC)
[3] = dose: 200.0 mg/kg/injection, schedule: Q01DX009 (ip), vehicle: Klucel (hydroxypropylcellulose) (HPC)
[4] = dose: 60.0 mg/kg/injection, schedule: Q01DX005 (ip), vehicle: saline with Tween-80
[5] = dose: 120.0 mg/kg/injection, schedule: Q01DX005 (ip), vehicle: saline with Tween-80
[6] = dose: 240.0 mg/kg/injection, schedule: Q01DX005 (ip), vehicle: saline with Tween-80
[7] = dose: 100.0 mg/kg/injection, schedule: Q01DX009 (ip), vehicle: saline with Tween-80
[8] = dose: 200.0 mg/kg/injection, schedule: Q01DX009 (ip), vehicle: saline with Tween-80
[9] = dose: 400.0 mg/kg/injection, schedule: Q01DX009 (ip), vehicle: saline with Tween-80
[10] = dose: 50.0 mg/kg/injection, schedule: Q01DX005 (ip), vehicle: Klucel (hydroxypropylcellulose) (HPC)
[11] = dose: 100.0 mg/kg/injection, schedule: Q01DX005 (ip), vehicle: Klucel (hydroxypropylcellulose) (HPC)
[12] = dose: 50.0 mg/kg/injection, schedule: Q01DX009 (ip), vehicle: saline with Tween-80
[13] = dose: 50.0 mg/kg/injection, schedule: Q01DX009 (ip), vehicle: saline
[14] = dose: 100.0 mg/kg/injection, schedule: Q01DX009 (ip), vehicle: saline
[15] = dose: 50.0 mg/kg/injection, schedule: Q01DX005 (ip), vehicle: saline with Tween-80
[16] = dose: 100.0 mg/kg/injection, schedule: Q01DX005 (ip), vehicle: saline with Tween-80
[17] = dose: 200.0 mg/kg/injection, schedule: Q01DX005 (ip), vehicle: saline with Tween-80
[18] = dose: 25.0 mg/kg/injection, schedule: Q01DX009 (ip), vehicle: saline with Tween-80

## COc1cc(Cc2n[nH]c(=S)[nH]c2=O)cc(OC)c1OC
dose: 100.0 mg/kg/injection, schedule: Q04DX002 (ip), vehicle: Klucel (hydroxypropylcellulose) (HPC)
  T/C: 110 % of control
dose: 200.0 mg/kg/injection, schedule: Q04DX002 (ip), vehicle: Klucel (hydroxypropylcellulose) (HPC)
  T/C: 98 % of control
dose: 400.0 mg/kg/injection, schedule: Q04DX002 (ip), vehicle: Klucel (hydroxypropylcellulose) (HPC)
  T/C: 100 % of control

## CC1COn2c1nc1ccccc1c2=O (stereo unspecified)
[1]
  T/C: 104 % of control
[2]
  T/C: 103 % of control
[3]
  T/C: 104 % of control

## Cc1cc(=O)n2[nH]c(-c3ccco3)cc2n1
[4]
  T/C: 104 % of control
[5]
  T/C: 104 % of control
[6]
  T/C: 105 % of control

## CC1(C)C/C(=C\c2cc(O)ccc2[N+](=O)[O-])C(=O)c2ccccc21
[7]
  T/C: 86 % of control
[8]
  T/C: 95 % of control
[9]
  T/C: 90 % of control

## COC1OC(CNC(=O)N(CCCl)N=O)C(O)C(O)C1O (stereo unspecified)
dose: 1.56 mg/kg/injection, schedule: Q01DX009 (ip), vehicle: saline
  T/C: 182 % of control
dose: 3.12 mg/kg/injection, schedule: Q01DX009 (ip), vehicle: saline
  T/C: 204 % of control
dose: 3.12 mg/kg/injection, schedule: Q04DX002 (ip), vehicle: saline
  T/C: 157 % of control
dose: 6.25 mg/kg/injection, schedule: Q01DX009 (ip), vehicle: saline
  T/C: 248 % of control
dose: 6.25 mg/kg/injection, schedule: Q04DX002 (ip), vehicle: saline
  T/C: 212 % of control
dose: 10.0 mg/kg/injection, schedule: Q04DX002 (ip), vehicle: saline
  T/C: 278 % of control
dose: 12.5 mg/kg/injection, schedule: Q01DX009 (ip), vehicle: saline
  T/C: 263 % of control
dose: 12.5 mg/kg/injection, schedule: Q04DX002 (ip), vehicle: saline
  T/C: 277 % of control
dose: 20.0 mg/kg/injection, schedule: Q04DX002 (ip), vehicle: saline
  T/C: 288 % of control
dose: 25.0 mg/kg/injection, schedule: Q04DX002 (ip), vehicle: saline
  T/C: 222 % of control
dose: 40.0 mg/kg/injection, schedule: Q04DX002 (ip), vehicle: saline
  T/C: 86 % of control

## N#CC(=C1C=CC(=NO)C=C1)c1ccc(Cl)cc1
dose: 50.0 mg/kg/injection, schedule: Q04DX003 (ip), vehicle: saline with Tween-80
  T/C: 91 % of control
dose: 100.0 mg/kg/injection, schedule: Q04DX003 (ip), vehicle: saline with Tween-80
  T/C: 100 % of control and 92 % of control
dose: 200.0 mg/kg/injection, schedule: Q04DX003 (ip), vehicle: saline with Tween-80
  T/C: 98 % of control and 105 % of control
dose: 400.0 mg/kg/injection, schedule: Q04DX003 (ip), vehicle: saline with Tween-80
  T/C: 117 % of control

## COC(=O)C1=CN(C)/C(=C/C=C(\C#N)C(=O)OC)C(C#N)=C1N
dose: 100.0 mg/kg/injection, schedule: Q01DX001 (ip), vehicle: Klucel (hydroxypropylcellulose) (HPC)
  T/C: 96 % of control
dose: 200.0 mg/kg/injection, schedule: Q01DX001 (ip), vehicle: Klucel (hydroxypropylcellulose) (HPC)
  T/C: 97 % of control
dose: 400.0 mg/kg/injection, schedule: Q01DX001 (ip), vehicle: Klucel (hydroxypropylcellulose) (HPC)
  T/C: 96 % of control

## OC1(c2ccccc2)CN(Cc2ccccc2)CC(c2ccccc2)O1 (stereo unspecified)
[7]
  T/C: 98 % of control
[8]
  T/C: 100 % of control
[9]
  T/C: 106 % of control

## CN(c1ccccc1)C(C#N)CC(C)(C)C (stereo unspecified)
[10]
  T/C: 98 % of control
[11]
  T/C: 107 % of control

## COc1cc(C[C@H]2CC(=O)O[C@@H]2CO)cc(OC)c1OC
dose: 50.0 mg/kg/injection, schedule: Q04DX002 (ip), vehicle: saline with Tween-80
  T/C: 101 % of control
dose: 100.0 mg/kg/injection, schedule: Q04DX002 (ip), vehicle: saline with Tween-80
  T/C: 99 % of control
dose: 200.0 mg/kg/injection, schedule: Q04DX002 (ip), vehicle: saline with Tween-80
  T/C: 96 % of control

## CCOC(=O)Cc1ccc(-c2csc(Nc3ccc(F)cc3)n2)cc1
[1]
  T/C: 103 % of control
[2]
  T/C: 100 % of control
[3]
  T/C: 105 % of control

## CC(=O)c1cc(C)ccc1S(C)=O (stereo unspecified)
dose: 50.0 mg/kg/injection, schedule: Q01DX005 (ip), vehicle: acetone
  T/C: 99 % of control
dose: 100.0 mg/kg/injection, schedule: Q01DX005 (ip), vehicle: acetone
  T/C: 100 % of control
dose: 200.0 mg/kg/injection, schedule: Q01DX005 (ip), vehicle: acetone
  T/C: 100 % of control

## CN1C(=O)CC(=O)N(C)P1(=O)Oc1ccccc1
dose: 100.0 mg/kg/injection, schedule: Q04DX002 (ip), vehicle: saline
  T/C: 101 % of control
dose: 200.0 mg/kg/injection, schedule: Q04DX002 (ip), vehicle: saline
  T/C: 101 % of control
dose: 400.0 mg/kg/injection, schedule: Q04DX002 (ip), vehicle: saline
  T/C: 101 % of control

## C1=CC(=C(C2CCC(Nc3ccccc3)CC2)C2CCC(Nc3ccccc3)CC2)C=CC1=Nc1ccccc1 (stereo unspecified)
[12]
  T/C: 100 % of control
[7]
  T/C: 109 % of control
[8]
  T/C: 109 % of control

## CC(=O)C1=CN(C)c2ccccc2S1
[10]
  T/C: 103 % of control
[11]
  T/C: 99 % of control
dose: 200.0 mg/kg/injection, schedule: Q01DX005 (ip), vehicle: Klucel (hydroxypropylcellulose) (HPC)
  T/C: 108 % of control

## N#Cc1ccc(-c2nc3ncnc(N)c3[nH]2)cc1
dose: 60.0 mg/kg/injection, schedule: Q01DX005 (ip), vehicle: Klucel (hydroxypropylcellulose) (HPC)
  T/C: 92 % of control
dose: 120.0 mg/kg/injection, schedule: Q01DX005 (ip), vehicle: Klucel (hydroxypropylcellulose) (HPC)
  T/C: 90 % of control
dose: 240.0 mg/kg/injection, schedule: Q01DX005 (ip), vehicle: Klucel (hydroxypropylcellulose) (HPC)
  T/C: 91 % of control

## C[C@@H]1C(N2CCCC2)=CC(=O)OC1c1ccccc1 (stereo partly specified)
[4]
  T/C: 105 % of control
[5]
  T/C: 109 % of control
[6]
  T/C: 111 % of control

## Cc1cccc(NC(=O)NC2CCCC(C)C2)c1 (stereo unspecified)
[13]
  T/C: 98 % of control
[14]
  T/C: 93 % of control
dose: 200.0 mg/kg/injection, schedule: Q01DX009 (ip), vehicle: saline
  T/C: 91 % of control

## CC(C)NCC(O)c1cc(Br)c(Br)s1 (stereo unspecified)
[13]
  T/C: 98 % of control
[14]
  T/C: 102 % of control

## BrCC1CN=C(c2ccccc2)O1 (stereo unspecified)
dose: 60.0 mg/kg/injection, schedule: Q01DX005 (ip), vehicle: saline
  T/C: 104 % of control
dose: 120.0 mg/kg/injection, schedule: Q01DX005 (ip), vehicle: saline
  T/C: 101 % of control
dose: 240.0 mg/kg/injection, schedule: Q01DX005 (ip), vehicle: saline
  T/C: 101 % of control

## Cc1c(Cl)cccc1Nc1ncccc1C(=O)OCC(O)CO (stereo unspecified)
[15]
  T/C: 96 % of control
[16]
  T/C: 98 % of control
[17]
  T/C: 95 % of control

## COC1/C=C/OC2(C)Oc3c(C)c(O)c4c(O)c(c(/C=N/N5C(C)CN(Cc6ccccc6C#N)CC5C)c(O)c4c3C2=O)NC(=O)/C(C)=C\C=C\C(C)C(O)C(C)C(O)C(C)C(OC(C)=O)C1C (stereo unspecified)
dose: 12.5 mg/kg/injection, schedule: Q01DX009 (ip), vehicle: saline with Tween-80
  T/C: 111 % of control
[18]
  T/C: 118 % of control
[12]
  T/C: 109 % of control
[7]
  T/C: 107 % of control and 108 % of control

## COC(=O)C12N=NN(c3ccccc3)C1(C(=O)OC)C1CCC2C1 (stereo unspecified)
[7]
  T/C: 95 % of control
[8]
  T/C: 100 % of control
[9]
  T/C: 90 % of control

## Cc1cc2nnc(-c3cccc([N+](=O)[O-])c3)n2c2nnnn12
dose: 25.0 mg/kg/injection, schedule: Q01DX005 (ip), vehicle: saline with Tween-80
  T/C: 100 % of control
[15]
  T/C: 102 % of control
[16]
  T/C: 98 % of control
[17]
  T/C: 100 % of control

## CN=NN(C)C(=O)NC
dose: 12.5 mg/kg/injection, schedule: Q01DX005 (ip), vehicle: saline
  T/C: 102 % of control
dose: 25.0 mg/kg/injection, schedule: Q01DX005 (ip), vehicle: saline
  T/C: 117 % of control

## CSC1(CC(=O)N(C)C)C(=O)N(C)c2ccccc21 (stereo unspecified)
[18]
  T/C: 100 % of control
[12]
  T/C: 94 % of control
[7]
  T/C: 115 % of control
